Assay results from patent US20030018044A1, “Treatment of ocular disease” (priority 2000, published 2003).

Columns and labels:
atopic dermatitis = settings: topical, cited from earlier work
eye = experiment: ocular toxicity after direct intraocular injection; format: in vivo, patient
From the text: The toxicity of tacrolimus, which had been reported with tacrolimus administered systemically, was thought to limit its intraocular use. The toxicity of tacrolimus administered intraocularly had not been evaluated. Ocular toxicity may manifest as a gross and/or histologic retinal and/orvitreous toxic reaction. Evidence of such a toxic reaction may include one or more of white vitreous bodies, white vitreous opacities, electroretinography abnormalities such as reduction in mean B-wave amplitude in both scotopic and photopic conditions, occlusion of the temporal retinal vessels, and fibrin deposits.
As used herein, a lack of substantial toxicity encompasses both the absence of any manifestations of toxicity, as well as manifestations of toxicity which one skilled in the art would consider not sufficiently detrimental to decrease or cease treatment.
The intravenous solution form of tacrolimus may be diluted to achieve the indicated concentration using 0.9% NaCl or 5% dextrose, or an organic solvent such as dimethylsulfoxide (DMSO) or alcohol, preferably a low molecular weight alcohol. Intraocular administration may be any of the routes and formulations previously described. For injection, either a solution, emulsion, suspension of a liquid, capsular formulation of microspheres or liposomes, etc. may be used.

human skin mast cells = settings: cited from earlier work
[1] = cited from earlier work

## C=CC[C@@H]1/C=C(\C)C[C@H](C)C[C@H](OC)[C@H]2O[C@@](O)(C(=O)C(=O)N3CCCC[C@H]3C(=O)O[C@H](/C(C)=C/[C@@H]3CC[C@@H](O)[C@H](OC)C3)[C@H](C)[C@@H](O)CC1=O)[C@H](C)C[C@@H]2OC [Tacrolimus]
Atopic dermatitis; concentrations up to 0.3%
  adverse effects, treated versus control groups: no significant difference
Atopic dermatitis; doses 0.03%-0.3%, after 2-3 weeks treatment
  clinical improvement in atopic dermatitis: significant clinical improvement
Atopic dermatitis
  local tolerability: well tolerated locally and only occasionally causes mild irritation
eye
  dose of direct intraocular injection without substantial toxicity: up to 250 μg
Human skin mast cells
  anti-IgE-triggered histamine release: inhibits
  prostaglandin D2 synthesis: inhibits
[1]; chloroform
  solubility in chloroform: very soluble
[1]; ethanol
  solubility in ethanol: freely soluble
[1]; methanol
  solubility in methanol: very soluble
[1]; water
  solubility in water: practically insoluble
